Experimental data reported in patent US12723235B2, “Method for expanding hepatocyte in vitro and application” (Center for Excellence in Molecular Cell Science, Chinese …, priority 2018, dated 2026).
Like-named read-outs stand apart in the source and are kept apart here.

What was measured:
human hepatocytes = assay: Expansion of human hepatocytes in HM medium with, without or with replaced Wnt signaling pathway agonist (6 days); type: cell-based; details: 50 ng/ml Wnt3a purified protein or CHIR 0.1 μM
Description: (§1) A. Cell photographs of human hepatocytes cultured for 6 days in: HM medium containing Wnt3a conditioned medium, HM medium without Wnt3a conditioned medium, HM medium containing Wnt3a purified protein instead of Wnt3a conditioned medium, and HM medium containing CHIR instead of Wnt3a conditioned medium.
as §1, with “B. Fold of expansion” for “A. Cell photographs”
Cryopreserved human liver cells were purchased from Celsis In Vitro Technologies (Baltimore, MD, U.S.). The cryopreserved human hepatocytes were resuscitated in DMEM medium containing 10% serum, and seeded in a collagen-I-coated plate at 2*10^4 cells/cm^2. The culture plate was incubated at 37° C. in a 5% CO2, 5% O2 incubator. The medium was changed to the hepatocyte medium one day after seeding and every 3 days thereafter. After 6 days of culture, the fully grown cells were trypsinized and seeded in a collagen-I-coated plate at 3*10^4 cells/cm^2. The culture plate was incubated at 37° C. in a 5% CO2 and 5% O2 incubator.
The HM medium contains a variety of growth factors and small molecule compounds.

ProliHHs [1] = test system: ProliHHs
Description: (§2) The fully grown proliferating human hepatocytes are trypsinized and re-suspended in the hepatocyte medium, and seeded in a non-attached 24-well plate (Elplasia, Japan) at 5*10^5 cells/well. One day later, the medium was replaced with the hepatocyte induction medium, and the cells will slowly aggregate into cell spheres. The medium was changed every 2 days, and the induced cells were collected 10 days after the induction.
(§3) • 1) Extract cellular RNA by Trizol (Invitrogen) or RNeasy FFPE Kit (Qiagen). • 2) Obtain cDNA by M-MLV reverse transcriptase (Promega) kit, using 1 μg Trizol-extracted RNA, or 1 μg or all (according to the particular amount) of the RNA extracted by RNeasy FFPE Kit. • 3) Perform real-time quantitative PCR using SYBR Premix Ex Taq kit (TaKaRa), and detect expression of genes with ABI StepOnePlus real-time PCR system (Applied Biosystems). All Q-PCR data were performed with at least 2 repeats.
(§4) For detecting urea secretion ability of the cultured cells, supernatants of cell culture were collected after 24-hour culture and analyzed by urea assay kit (Abnova) according to its protocol.
(§5) For measurement of CYP2B6 metabolism activity of the proliferating human hepatocytes, cells subjected 10 days of hepatic induction and freshly resuscitated human hepatocytes were incubated respectively in a medium containing 100 um bupropion. Supernatants of cell culture were present to RILD Liver Company to detect the production of CYP2B6 metabolites using mass spectrometry. Standard curves were drawn using commercially purchased standards.

ProliHHs [2] = assay: In vitro hepatic maturation induction of ProliHHs (3D culture, 10 days; morphology, gene expression, CYP2B6 and urea metabolism); details: components added to HM to give HIM
Description: as §2, §3, §4, §5

| role in hepatic maturation medium (metabolic maturation, inhibition of progenitor gene expression) (ProliHHs [2]) | Molecule | cell morphology and expansion fold compared with Wnt3a conditioned medium (human hepatocytes) | expansion of human hepatocytes when replacing Wnt3a conditioned medium in HM medium (human hepatocytes) | role in hepatic maturation medium (metabolic maturation, inhibition of progenitor gene expression) (ProliHHs [1]) |
| --- | --- | --- | --- | --- |
| – | Cc1c[nH]c(-c2cnc(NCCNc3ccc(C#N)cn3)nc2-c2ccc(Cl)cc2Cl)n1 [CHIR, CHIR99021] | similar | could be expanded | – |
| – | C[C@@H]1C[C@H]2[C@@H]3CCC4=CC(=O)C=C[C@]4(C)[C@@]3(F)[C@@H](O)C[C@]2(C)[C@@]1(O)C(=O)CO [DEX, Dexamethasone] | – | – | key factors |
| key factors | C=C[C@@]1(C)CC(=O)[C@]2(O)[C@@]3(C)[C@@H](O)CCC(C)(C)[C@@H]3[C@H](O)[C@H](OC(C)=O)[C@@]2(C)O1 [Forskolin] | – | – | – |
| – | Oncostatin M [OSM] | – | – | key factors |
| – | Wnt3a purified protein: Purified Wnt3a protein, Wnt signaling pathway agonist (stemimmune LLC) (protein, UniProt P56704 19-352, looked up) Protein Wnt-3a: SYPIWWSLAVGPQYSSLGSQPILCASIPGLVPKQLRFCRNYVEIMPSVAEGIKIGIQECQHQFRGRRWNCTTVHDSLAIFGPVLDKATRESAFVHAIASAGVAFAVTRSCAEGTAAICGCSSRHQGSPGKGWKWGGCSEDIEFGGMVSREFADARENRPDARSAMNRHNNEAGRQAIASHMHLKCKCHGLSGSCEVKTCWWSQPDFRAIGDFLKDKYDSASEMVVEKHRESRGWVETLRPRYTYFKVPTERDLVYYEASPNFCEPNPETGSFGTRDRTCNVSSHGIDGCDLLCCGRGHNARAERRREKCRCVFHWCCYVSCQECTRVYDVHTCK | similar | could be expanded | – |
